Source: US20260325685A1, “Radiopharmaceutical Compositions Targeting Carbonic Anhydrase IX and Uses Thereof” (RayzeBio, Inc., priority 2023, published 2026)
pKd: −log10 of the molar value. Like-named read-outs stand apart in the source and are kept apart here.

Tests used:
human CA-XII = biological target: T1, human CA-XII (Homo sapiens, UniProt O43570); test: Surface Plasmon Resonance (SPR) binding kinetics to recombinant human CA-XII (Biacore 8K, single-cycle kinetics, 1:1 binding model)
T1 construct: purchased Creative BioMart CA12-261H
T1 sequence (O43570 25-354): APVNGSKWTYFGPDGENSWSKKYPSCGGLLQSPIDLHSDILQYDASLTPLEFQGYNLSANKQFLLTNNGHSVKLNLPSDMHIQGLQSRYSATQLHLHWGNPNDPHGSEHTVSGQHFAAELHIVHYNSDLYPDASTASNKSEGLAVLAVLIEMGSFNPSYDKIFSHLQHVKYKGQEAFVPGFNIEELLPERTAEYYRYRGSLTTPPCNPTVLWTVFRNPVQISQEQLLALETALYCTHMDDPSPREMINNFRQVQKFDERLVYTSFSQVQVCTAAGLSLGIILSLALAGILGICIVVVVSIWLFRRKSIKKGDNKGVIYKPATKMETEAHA
In short: (§1)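 Using captured protein at 1200-1800 RU, we injected compound at 100-0.39 nM in 1% DMSO buffer, pH 7.4, 25° C, then corrected curves for reference and DMSO to obtain rate constants.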

human CA-IX = biological target: T2, human CA-IX (Homo sapiens, UniProt Q16790); test: Surface Plasmon Resonance (SPR) binding kinetics to recombinant human CA-IX (Biacore 8K, single-cycle kinetics, 1:1 binding model)
T2 construct: purchased Acro CA9-H82E3
In short: as §1

[1] = Chelated Metal: Lu-175, 25° C., pH 7.4, read-out: CAXII KD
[2] = Chelated Metal: Lu-175; SPR, 25° C., pH 7.4; read-out: CAIX KD

Structure (SMILES)	pKd (human CA-XII; [1])	pKd (human CA-IX; [2])	pKd (human CA-XII; read-out: CAXII KD, Chelated Metal: Lu-175, 25° C., pH 7.4)	pKd (human CA-IX; read-out: CAIX KD; Chelated Metal: Lu-175; SPR, 25° C., pH 7.4)
CC(CCCC(=O)N1CCC(C(N)=O)(C(=O)NCC(=O)N2CCN(C(=O)CN3CCN(CC(=O)O)CCN(CC(=O)O)CCN(CC(=O)O)CC3)C[C@H]2C(=O)NCCn2cc(C34CC(C(=O)Nc5nnc(S(N)(=O)=O)s5)(C3)C4)nn2)CC1)(c1ccc(O)cc1)c1ccc(O)cc1.[Lu+3] [Compound 107]	< 8.00	> 9.00	–	–
NS(=O)(=O)c1nnc(NC(=O)C23CC(c4cn(CCNC(=O)[C@H]5CN(C(=O)CN6CCN(CC(=O)O)CCN(CC(=O)O)CCN(CC(=O)O)CC6)CCN5C(=O)[C@@H]5COCCN5C(=O)CCc5n[nH]c6ccccc56)nn4)(C2)C3)s1.[Lu+3] [Compound 108.1]	< 8.00	8.00 to 8.60	–	–
CC(CCCC(=O)N1CCOC[C@H]1C(=O)N[C@@H](CC(=O)N1CCN(C(=O)CN2CCN(CC(=O)O)CCN(CC(=O)O)CCN(CC(=O)O)CC2)C[C@@H]1C(=O)NCCn1cc(C23CC(C(=O)Nc4nnc(S(N)(=O)=O)s4)(C2)C3)nn1)C(=O)O)(c1ccc(O)cc1)c1ccc(O)cc1.[Lu+3] [Compound 108.2]	< 8.00	> 9.00	–	–
CC(CCC(=O)N1CCNC[C@H]1C(=O)N[C@@H](CC(=O)N1CCN(C(=O)CN2CCN(CC(=O)O)CCN(CC(=O)O)CCN(CC(=O)O)CC2)C[C@@H]1C(=O)NCCn1cc(C23CC(C(=O)Nc4nnc(S(N)(=O)=O)s4)(C2)C3)nn1)C(N)=O)(c1ccc(O)cc1)c1ccc(O)cc1.[Lu+3] [Compound 108.3]	< 8.00	8.00 to 8.60	–	–
CC(CCC(=O)N1CCOC[C@@H]1C(=O)N[C@@H](CC(=O)N1CCN(C(=O)CN2CCN(CC(=O)O)CCN(CC(=O)O)CCN(CC(=O)O)CC2)C[C@@H]1C(=O)NCCn1cc(C23CC(C(=O)Nc4nnc(S(N)(=O)=O)s4)(C2)C3)nn1)C(=O)O)(c1ccc(O)cc1)c1ccc(O)cc1.[Lu+3] [Compound 108.4]	< 8.00	8.60 to 9.00	–	–
CC(CCC(=O)N1CCC[C@@H]1C(=O)N[C@@H](CC(=O)N1CCN(C(=O)CN2CCN(CC(=O)O)CCN(CC(=O)O)CCN(CC(=O)O)CC2)C[C@@H]1C(=O)NCCn1cc(C23CC(C(=O)Nc4nnc(S(N)(=O)=O)s4)(C2)C3)nn1)C(=O)O)(c1ccc(O)cc1)c1ccc(O)cc1.[Lu+3] [Compound 108.5]	< 8.00	8.00 to 8.60	–	–
CC(CCC(=O)N1CCC[C@H]1C(=O)N[C@@H](CC(=O)N1CCN(C(=O)CN2CCN(CC(=O)O)CCN(CC(=O)O)CCN(CC(=O)O)CC2)C[C@@H]1C(=O)NCCn1cc(C23CC(C(=O)Nc4nnc(S(N)(=O)=O)s4)(C2)C3)nn1)C(=O)O)(c1ccc(O)cc1)c1ccc(O)cc1.[Lu+3] [Compound 108]	–	–	< 8.00	8.60 to 9.00
NS(=O)(=O)c1nnc(NC(=O)C23CC(c4cn(CCNC(=O)[C@@H]5CN(C(=O)CN6CCN(CC(=O)O)CCN(CC(=O)O)CCN(CC(=O)O)CC6)CCN5C(=O)C[C@H](NC(=O)C[C@H](NC(=O)c5ccc(C6CC6)cc5)C(=O)O)C(=O)O)nn4)(C2)C3)s1.[Lu+3] [Compound 109.1]	8.00 to 8.60	> 9.00	–	–
NS(=O)(=O)c1nnc(NC(=O)C23CC(c4cn(CCNC(=O)[C@@H]5CN(C(=O)CN6CCN(CC(=O)O)CCN(CC(=O)O)CCN(CC(=O)O)CC6)CCN5C(=O)C[C@H](NC(=O)C[C@H](NC(=O)CCC5CCCCCC5)C(=O)O)C(=O)O)nn4)(C2)C3)s1.[Lu+3] [Compound 109.2]	8.60 to 9.00	> 9.00	–	–
Cc1c(C(=O)N[C@@H](CC(=O)N[C@@H](CC(=O)N2CCN(C(=O)CN3CCN(CC(=O)O)CCN(CC(=O)O)CCN(CC(=O)O)CC3)C[C@H]2C(=O)NCCn2cc(C34CC(C(=O)Nc5nnc(S(N)(=O)=O)s5)(C3)C4)nn2)C(=O)O)C(=O)O)n[nH]c1C(F)(F)F.[Lu+3] [Compound 109.3]	> 9.00	> 9.00	–	–
NS(=O)(=O)c1nnc(NC(=O)C23CC(c4cn(CCNC(=O)[C@@H]5CN(C(=O)CN6CCN(CC(=O)O)CCN(CC(=O)O)CCN(CC(=O)O)CC6)CCN5C(=O)C[C@H](NC(=O)C[C@H](NC(=O)c5ccc(C6CC6)nn5)C(=O)O)C(=O)O)nn4)(C2)C3)s1.[Lu+3] [Compound 109.4]	8.00 to 8.60	> 9.00	–	–
NS(=O)(=O)c1nnc(NC(=O)C23CC(c4cn(CCNC(=O)[C@@H]5CN(C(=O)CN6CCN(CC(=O)O)CCN(CC(=O)O)CCN(CC(=O)O)CC6)CCN5C(=O)C[C@H](NC(=O)C[C@H](NC(=O)CCc5ccc(O)cc5)C(=O)O)C(=O)O)nn4)(C2)C3)s1.[Lu+3] [Compound 109.5]	8.00 to 8.60	8.60 to 9.00	–	–
NS(=O)(=O)c1nnc(NC(=O)C23CC(c4cn(CCNC(=O)[C@@H]5CN(C(=O)CN6CCN(CC(=O)O)CCN(CC(=O)O)CCN(CC(=O)O)CC6)CCN5C(=O)C[C@H](NC(=O)C[C@H](NC(=O)c5cc(C(F)(F)F)[nH]n5)C(=O)O)C(=O)O)nn4)(C2)C3)s1.[Lu+3] [Compound 109.6]	8.00 to 8.60	> 9.00	–	–
NS(=O)(=O)c1nnc(NC(=O)C23CC(c4cn(CCNC(=O)[C@@H]5CN(C(=O)CN6CCN(CC(=O)O)CCN(CC(=O)O)CCN(CC(=O)O)CC6)CCN5C(=O)C[C@H](NC(=O)C[C@H](NC(=O)c5n[nH]c6ccccc56)C(=O)O)C(=O)O)nn4)(C2)C3)s1.[Lu+3] [Compound 109.7]	8.00 to 8.60	> 9.00	–	–
NS(=O)(=O)c1nnc(NC(=O)C23CC(c4cn(CCNC(=O)[C@@H]5CN(C(=O)CN6CCN(CC(=O)O)CCN(CC(=O)O)CCN(CC(=O)O)CC6)CCN5C(=O)C[C@H](NC(=O)C[C@H](NC(=O)c5coc(C6CC6)n5)C(=O)O)C(=O)O)nn4)(C2)C3)s1.[Lu+3] [Compound 109.8]	8.00 to 8.60	8.60 to 9.00	–	–
NS(=O)(=O)c1nnc(NC(=O)C23CC(c4cn(CCNC(=O)[C@@H]5CN(C(=O)CN6CCN(CC(=O)O)CCN(CC(=O)O)CCN(CC(=O)O)CC6)CCN5C(=O)C[C@H](NC(=O)C[C@H](NC(=O)CCC56CCC(CC5)C6)C(=O)O)C(=O)O)nn4)(C2)C3)s1.[Lu+3] [Compound 109.9]	8.60 to 9.00	> 9.00	–	–
NS(=O)(=O)c1nnc(NC(=O)C23CC(c4cn(CCNC(=O)[C@@H]5CN(C(=O)CN6CCN(CC(=O)O)CCN(CC(=O)O)CCN(CC(=O)O)CC6)CCN5C(=O)C[C@H](NC(=O)C[C@H](NC(=O)Cc5n[nH]c6ccccc56)C(=O)O)C(=O)O)nn4)(C2)C3)s1.[Lu+3] [Compound 109.10]	8.00 to 8.60	> 9.00	–	–
NS(=O)(=O)c1nnc(NC(=O)C23CC(c4cn(CCNC(=O)[C@@H]5CN(C(=O)CN6CCN(CC(=O)O)CCN(CC(=O)O)CCN(CC(=O)O)CC6)CCN5C(=O)C[C@H](NC(=O)C[C@H](NC(=O)Cc5n[nH]c6ccc(F)cc56)C(=O)O)C(=O)O)nn4)(C2)C3)s1.[Lu+3] [Compound 109.11]	8.00 to 8.60	> 9.00	–	–
NS(=O)(=O)c1nnc(NC(=O)C23CC(c4cn(CCNC(=O)[C@@H]5CN(C(=O)CN6CCN(CC(=O)O)CCN(CC(=O)O)CCN(CC(=O)O)CC6)CCN5C(=O)C[C@H](NC(=O)C[C@H](NC(=O)c5ccc(C6CC6)nc5)C(=O)O)C(=O)O)nn4)(C2)C3)s1.[Lu+3] [Compound 109.12]	8.00 to 8.60	8.60 to 9.00	–	–
N[C@@H](CC(=O)N[C@@H](CC(=O)N1CCN(C(=O)CN2CCN(CC(=O)O)CCN(CC(=O)O)CCN(CC(=O)O)CC2)C[C@H]1C(=O)NCCn1cc(C23CC(C(=O)Nc4nnc(S(N)(=O)=O)s4)(C2)C3)nn1)C(=O)O)C(=O)O.[Lu+3] [Compound 109.13]	8.00 to 8.60	> 9.00	–	–
NS(=O)(=O)c1nnc(NC(=O)C23CC(c4cn(CCNC(=O)[C@@H]5CN(C(=O)CN6CCN(CC(=O)O)CCN(CC(=O)O)CCN(CC(=O)O)CC6)CCN5C(=O)C[C@H](NC(=O)C[C@H](NC(=O)CCCc5ccc(I)cc5)C(=O)O)C(=O)O)nn4)(C2)C3)s1.[Lu+3] [Compound 109.14]	8.00 to 8.60	> 9.00	–	–
NS(=O)(=O)c1nnc(NC(=O)C23CC(c4cn(CCNC(=O)[C@@H]5CN(C(=O)CN6CCN(CC(=O)O)CCN(CC(=O)O)CCN(CC(=O)O)CC6)CCN5C(=O)C[C@H](NC(=O)C[C@H](NC(=O)c5n[nH]c6ccc(F)cc56)C(=O)O)C(=O)O)nn4)(C2)C3)s1.[Lu+3] [Compound 109.15]	8.00 to 8.60	> 9.00	–	–
NS(=O)(=O)c1nnc(NC(=O)C23CC(c4cn(CCNC(=O)[C@@H]5CN(C(=O)CN6CCN(CC(=O)O)CCN(CC(=O)O)CCN(CC(=O)O)CC6)CCN5C(=O)C[C@H](NC(=O)C[C@H](NC(=O)c5ccc(S(F)(F)(F)(F)F)cc5)C(=O)O)C(=O)O)nn4)(C2)C3)s1.[Lu+3] [Compound 109.16]	8.00 to 8.60	> 9.00	–	–
NS(=O)(=O)c1nnc(NC(=O)C23CC(c4cn(CCNC(=O)[C@@H]5CN(C(=O)CN6CCN(CC(=O)O)CCN(CC(=O)O)CCN(CC(=O)O)CC6)CCN5C(=O)C[C@H](NC(=O)C[C@H](NC(=O)c5coc(C(F)(F)F)n5)C(=O)O)C(=O)O)nn4)(C2)C3)s1.[Lu+3] [Compound 109.17]	< 8.00	8.00 to 8.60	–	–
NS(=O)(=O)c1nnc(NC(=O)C23CC(c4cn(CCNC(=O)[C@@H]5CN(C(=O)CN6CCN(CC(=O)O)CCN(CC(=O)O)CCN(CC(=O)O)CC6)CCN5C(=O)C[C@H](NC(=O)C[C@H](NC(=O)CC5CC6(CCC6)C5)C(=O)O)C(=O)O)nn4)(C2)C3)s1.[Lu+3] [Compound 109.18]	8.60 to 9.00	> 9.00	–	–
NS(=O)(=O)c1nnc(NC(=O)C23CC(c4cn(CCNC(=O)[C@@H]5CN(C(=O)CN6CCN(CC(=O)O)CCN(CC(=O)O)CCN(CC(=O)O)CC6)CCN5C(=O)C[C@H](NC(=O)C[C@H](NC(=O)c5ccc(C6CC6)cn5)C(=O)O)C(=O)O)nn4)(C2)C3)s1.[Lu+3] [Compound 109.19]	8.60 to 9.00	> 9.00	–	–
NS(=O)(=O)c1nnc(NC(=O)C23CC(c4cn(CCNC(=O)[C@@H]5CN(C(=O)CN6CCN(CC(=O)O)CCN(CC(=O)O)CCN(CC(=O)O)CC6)CCN5C(=O)C[C@H](NC(=O)C[C@H](NC(=O)Cc5ccc(S(F)(F)(F)(F)F)cc5)C(=O)O)C(=O)O)nn4)(C2)C3)s1.[Lu+3] [Compound 109.20]	8.00 to 8.60	> 9.00	–	–
